Measured values published in patent US9120762B2, “Salts of bicyclo-substituted pyrazolon azo derivatives, preparation method and use thereof” (Jiangsu Hengrui Medicine Co., Ltd., priority 2009, dated 2015).
Converted amounts (≈) assume the structure as drawn. Read-outs that look alike come from different tables or passages of the source.

Legend:
[1] = Pharmacokinetics assay in rats; type: in vivo, SD rats; details: SD rats, intragastric, 50 mg/Kg (as free acid); for Vd/F / AUC / CL/F / half-life / MRT / Cmax / Tmax: both sexes, rat, po; for Vd/F: read-out: Apparent Distribution Volume Vz/F; for AUC: read-out: Area Under Curve AUC; for CL/F: read-out: Clearance CL/F (converted); for half-life: read-out: Half-Life t½ (converted); for MRT: read-out: Mean Residence Time MRT; for Cmax: read-out: Plasma Conc. Cmax; for Tmax: read-out: Time to peak Tmax
Procedure: The compounds of the present disclosure were administrated intragastrically to rats to determine the drug concentration in plasma at different time points by HPLC-UV. The pharmacokinetic behavior of the compounds of the present disclosure was studied and evaluated in rats. […] Healthy adult SD rats, male and female in half, were purchased from SINO-BRITSH SIPPR/BK LAB.ANIMAL LTD., Colo., License number: SCXK (Shanghai) 2003-0002 The test compound was diluted with 1% sodium carboxymethyl cellulose to 5 mg/mL (calculated as the free acid form) of suspension before use. Healthy adult SD rats, male and female in half, were divided into 23 groups. […] The plasma samples were stored at −20° C. until analysis. The rats were fed 2 hours after administration. […] Then the mixture was mixed for 3 minute using a vortexer and centrifuged for 10 minutes at 13,500 rpm. 40 μL of the supernatant was analyzed by HPLC-UV. The compartmental model of pharmacokinetics was fitted for the test compounds and the major pharmacokinetic parameters were calculated in which Cmax and tmax were the actually measured values.

[2] = Solubility assay in water, 0.1% hydrochloric acid and methanol; type: physicochemical
Procedure: The solubility was characterized by:
The term “very soluble” refers to that 1 g (mL) of solute can be dissolved in less than 1 mL of solvent;
The term “freely soluble” refers to that 1 g (mL) of solute can be dissolved in from 1 mL to 10 mL, not including 10 mL of solvent;
The term “soluble” refers to that 1 g (mL) of solute can be dissolved in from 10 mL to 30 mL, not including 30 mL of solvent;
The term “sparingly soluble” refers to that 1g (mL) of solute can be dissolved in from 30 mL to 100 mL, not including 100 mL of solvent;
The term “slightly soluble” refers to that 1g (mL) of solute can be dissolved in from 100 mL to 1000 mL, not including 1000 mL of solvent;
The term “very slightly soluble” refers to that 1g (mL) of solute can be dissolved in from 1000 mL to 10000 mL, not including 10000 mL of solvent;
The term “practically insoluble or insoluble” refers to that 1g (mL) of solute cannot be dissolved completely in 10000 mL of solvent.

Work on `CC1=NN(c2ccc(C)c(C)c2)C(=O)/C1=N\Nc1cccc(-c2cccc(C(=O)O)c2)c1O` [Eltrombopag, eltrombopag, reference compound] yielded a Vd/F ([1]; SD, plasma, 50 mg/kg) of 0.95 ± 0.42 L/kg, an AUC ([1]; SD, plasma, 50 mg/kg) of 680 ± 255 µg·h/mL and a CL/F ([1]; SD, plasma, 50 mg/kg) of 1.48 mL/min/kg. The half-life ([1]; SD, plasma, 50 mg/kg) was 7.82 ± 1.34 h, the MRT ([1]; SD, plasma, 50 mg/kg) was 11.2 ± 2.6 h and the Cmax ([1]; SD, plasma, 50 mg/kg) was 61800 ± 18700 ng/mL. It also gave a Tmax ([1]; SD, plasma, 50 mg/kg) of 5.5 ± 1 h.
For `CC1=NN(c2ccc3c(c2)CCC3)C(=O)/C1=N\Nc1cccc(-c2cccc(C(=O)O)c2)c1O.CCNCC.CCNCC` [Example 2, (Z)-2′-hydroxy-3′-[N′-(1-indan-5-yl-3-methyl-5-oxo-1,5-dihydro-pyrazol-4-ylidene)-hydrazino]-biphenyl-3-carboxylic acid bis-(diethylamine)], the Vd/F ([1]; in vivo) was 0.83 ± 0.16 L/kg, the AUC ([1]; in vivo) was 833 ± 64 µg·h/mL and the CL/F ([1]; in vivo) was 1 mL/min/kg. The half-life ([1]; in vivo) was 9.55 ± 1.44 h, the MRT ([1]; in vivo) was 11.1 ± 0.76 h and the Cmax ([1]; in vivo) was 83900 ± 11200 ng/mL. For the same compound, the Tmax ([1]; in vivo) was 5 ± 1.16 h.
In the case of `CC1=NN(c2ccc3c(c2)CCC3)C(=O)/C1=N\Nc1cccc(-c2cccc(C(=O)O)c2)c1O` [Example 3, (Z)-2′-hydroxy-3′-[N′-(1-indan-5-yl-3-methyl-5-oxo-1,5-dihydro-pyrazol-4-ylidene)-hydrazino]-biphenyl-3-carboxylic acid bis-(piperazine)], the “Area Under Curve AUC” value ([1]; 50 mg/kg) is reported as 842 ± 185 µg·h/mL, the “Half-Life t½” value ([1]; 50 mg/kg) is reported as 8.87 ± 0.78 h and the “Mean Residence Time MRT” value ([1]; 50 mg/kg) is reported as 13.0 ± 0.9 h. The “Plasma Conc. Cmax” value ([1]; 50 mg/kg) was 79000 ± 9300 ng/mL, the CL/F ([1]; SD, plasma, 50 mg/kg) was 1.03 mL/min/kg and the Tmax ([1]; SD, plasma, 50 mg/kg) was 5.5 ± 1 h. For the same compound, the solubility ([2]; 0.1% hydrochloric acid) was <1 µg/mL, the solubility ([2]; methanol) was 1534 µg/mL (≈ 3.38 mM) and the solubility ([2]; water) was 2290 µg/mL (≈ 5.04 mM).
With `CC1=NN(c2ccc3c(c2)CCCC3)C(=O)/C1=N\Nc1cccc(-c2ccc(C(=O)O)o2)c1O` [Example 7d, (Z)-5-(2-hydroxy-3-{N′-[3-methyl-5-oxo-1-(5,6,7,8-tetrahydro-naphthalen-2-yl)-1,5-dihydro-pyrazol-4-ylidene]-hydrazino}-phenyl)-furan-2-carboxylic acid] the “Half-Life t½” value ([1]; 50 mg/kg) was 7.42 ± 7.19 h, the “Plasma Conc. Cmax” value ([1]; 50 mg/kg) was 16200 ± 3900 ng/mL and the “Time to peak Tmax” value ([1]; 50 mg/kg) was 2.5 ± 1.0 h.
For `CC1=NN(c2ccc3c(c2)CCCC3)C(=O)/C1=N\Nc1cccc(-c2ccc(C(=O)O)o2)c1O` [Example 11, (Z)-5-(2-hydroxy-3-{N′-[3-methyl-5-oxo-1-(5,6,7,8-tetrahydro-naphthalen-2-yl)-1,5-dihydro-pyrazol-4-ylidene]-hydrazino}-phenyl)-furan-2-carboxylic acid bis-(piperazine)], the “Area Under Curve AUC” value ([1]; 50 mg/kg) was 270 ± 178 µg·h/mL, the “Clearance CL/F” value ([1]; 50 mg/kg) was 14.6 ± 24.42 mL/min/kg and the “Half-Life t½” value ([1]; 50 mg/kg) was 12.1 ± 7.19 h. For the same compound, the “Plasma Conc. Cmax” value ([1]; 50 mg/kg) was 40200 ± 24300 ng/mL and the “Time to peak Tmax” value ([1]; 50 mg/kg) was 1.5 ± 0.58 h.
`CC1=NN(c2ccc3c(c2)CCC3)C(=O)/C1=N\Nc1cccc(-c2ccc(C(=O)O)o2)c1O.NCCO.NCCO` [Example 16, (Z)-5-{2-hydroxy-3-[N′-(1-indan-5-yl-3-methyl-5-oxo-1,5-dihydro-pyrazol-4-ylidene)-hydrazino]-phenyl}-furan-2-carboxylic acid bis-(ethanolamine)] showed a Vd/F ([1]; SD, plasma, 50 mg/kg) of 6.33 ± 4.57 L/kg, an AUC ([1]; SD, plasma, 50 mg/kg) of 52.4 ± 48 µg·h/mL and a CL/F ([1]; SD, plasma, 50 mg/kg) of 32.3 mL/min/kg. For the same compound, the half-life ([1]; SD, plasma, 50 mg/kg) was 2.08 ± 1.74 h, the MRT ([1]; SD, plasma, 50 mg/kg) was 3.84 ± 1.03 h and the Cmax ([1]; SD, plasma, 50 mg/kg) was 19600 ± 16300 ng/mL. The Tmax ([1]; SD, plasma, 50 mg/kg) was 2 ± 0.82 h.
In the case of `CC1=NN(c2ccc3c(c2)CCC3)C(=O)/C1=N\Nc1cccc(-c2ccc(C(=O)O)o2)c1O.CCNCC.CCNCC` [Example 17, (Z)-5-{2-hydroxy-3-[N′-(1-indan-5-yl-3-methyl-5-oxo-1,5-dihydro-pyrazol-4-ylidene)-hydrazino]-phenyl}-furan-2-carboxylic acid bis-(diethylamine)], the Vd/F ([1]; in vivo) is reported as 8.16 ± 11.1 L/kg, the AUC ([1]; in vivo) is reported as 138 ± 33 µg·h/mL and the CL/F ([1]; in vivo) is reported as 6.33 mL/min/kg. The half-life ([1]; in vivo) was 12.7 ± 14.7 h, the MRT ([1]; in vivo) was 14 ± 12 h and the Cmax ([1]; in vivo) was 21500 ± 10500 ng/mL. The Tmax ([1]; in vivo) was 3.38 ± 3.04 h.
With `CC1=NN(c2ccc3c(c2)CCC3)C(=O)/C1=N\Nc1cccc(-c2ccc(C(=O)O)o2)c1O` [Example 18, (Z)-5-{2-hydroxy-3-[N′-(1-indan-5-yl-3-methyl-5-oxo-1,5-dihydro-pyrazol-4-ylidene)-hydrazino]-phenyl}-furan-2-carboxylic acid bis-(piperazine)] the “Area Under Curve AUC” value ([1]; 50 mg/kg) was 119 ± 102 µg·h/mL, the “Clearance CL/F” value ([1]; 50 mg/kg) was 10.5 ± 5.83 mL/min/kg and the “Half-Life t½” value ([1]; 50 mg/kg) was 3.99 ± 1.60 h. The “Mean Residence Time MRT” value ([1]; 50 mg/kg) was 5.31 ± 2.64 h, the “Plasma Conc. Cmax” value ([1]; 50 mg/kg) was 23300 ± 11600 ng/mL and the “Time to peak Tmax” value ([1]; 50 mg/kg) was 1.63 ± 1.63 h. The solubility ([2]; 0.1% hydrochloric acid) was <1 µg/mL, the solubility ([2]; methanol) was 6096 µg/mL (≈ 13.7 mM) and the solubility ([2]; water) was 2741 µg/mL (≈ 6.17 mM).
With `CC1=NN(c2ccc3c(c2)CCC3)C(=O)/C1=N\Nc1cccc(-c2csc(C(=O)O)c2)c1O.NCCO.NCCO` [Example 19, (Z)-4-{2-hydroxy-3-[N′-(1-indan-5-yl-3-methyl-5-oxo-1,5-dihydro-pyrazol-4-ylidene)-hydrazino]-phenyl}-thiophene-2-carboxylic acid bis-(ethanolamine)] the Vd/F ([1]; SD, plasma, 50 mg/kg) was 5.47 ± 2.72 L/kg, the AUC ([1]; SD, plasma, 50 mg/kg) was 89.2 ± 7.2 µg·h/mL and the CL/F ([1]; SD, plasma, 50 mg/kg) was 14.7 mL/min/kg. The half-life ([1]; SD, plasma, 50 mg/kg) was 5.71 ± 3.68 h, the MRT ([1]; SD, plasma, 50 mg/kg) was 7.85 ± 2.92 h and the Cmax ([1]; SD, plasma, 50 mg/kg) was 20800 ± 17300 ng/mL. The Tmax ([1]; SD, plasma, 50 mg/kg) was 1.81 ± 2.79 h.
Work on `CC1=NN(c2ccc3c(c2)CCC3)C(=O)/C1=N\Nc1cccc(-c2csc(C(=O)O)c2)c1O.CCNCC.CCNCC` [Example 20, (Z)-4-{2-hydroxy-3-[N′-(1-indan-5-yl-3-methyl-5-oxo-1,5-dihydro-pyrazol-4-ylidene)-hydrazino]-phenyl}-thiophene-2-carboxylic acid bis-(diethylamine)] yielded a Vd/F ([1]; in vivo) of 2.05 ± 0.68 L/kg, an AUC ([1]; in vivo) of 275 ± 116 µg·h/mL and a CL/F ([1]; in vivo) of 3.5 mL/min/kg. It also gave a half-life ([1]; in vivo) of 7.24 ± 2.45 h, an MRT ([1]; in vivo) of 7.59 ± 1.33 h and a Cmax ([1]; in vivo) of 46100 ± 15700 ng/mL. It also gave a Tmax ([1]; in vivo) of 4.5 ± 1 h.
With `CC1=NN(c2ccc3c(c2)CCC3)C(=O)/C1=N\Nc1cccc(-c2csc(C(=O)O)c2)c1O` [Example 21, (Z)-4-{2-hydroxy-3-[N′-(1-indan-5-yl-3-methyl-5-oxo-1,5-dihydro-pyrazol-4-ylidene)-hydrazino]-phenyl}-thiophene-2-carboxylic acid bis-(piperazine)] the “Area Under Curve AUC” value ([1]; 50 mg/kg) was 380 ± 109 µg·h/mL, the “Clearance CL/F” value ([1]; 50 mg/kg) was 2.33 ± 0.67 mL/min/kg and the “Half-Life t½” value ([1]; 50 mg/kg) was 6.86 ± 0.48 h. The “Mean Residence Time MRT” value ([1]; 50 mg/kg) was 8.61 ± 0.31 h, the “Plasma Conc. Cmax” value ([1]; 50 mg/kg) was 61100 ± 1380 ng/mL and the “Time to peak Tmax” value ([1]; 50 mg/kg) was 5.5 ± 1.0 h. The solubility ([2]; 0.1% hydrochloric acid) was <1 µg/mL, the solubility ([2]; methanol) was 2416 µg/mL (≈ 5.25 mM) and the solubility ([2]; water) was 814 µg/mL (≈ 1.77 mM).
